Results as given in patent publication US11702418B2, “SOS1 inhibitors” (priority 2019, dated 2023).
Where a name gives a salt, the structure may show the parent alone.

These molecules were tested against recombinant human SOS1 polypeptide (amino acids 560-1049) (Homo sapiens (Human), UniProt Q07889) (assay: biochemical). Conditions: HTRF displacement, Cy5 labelled tracer, Morrison equation for competitive binding; read-out: Ki, Inhibition of Labeled Tracer Binding to SOS1.
Type: binding
Method: The ability of a compound of Formula (I) to bind to SOS1 was measured using a HTRF displacement assay. […] After a 1-hour incubation at room temperature, the HTRF signal was measured using Clairostar plate reader (BMG Labtech) according to the manufacturer's instructions. Excitation filter EX-TR was used, and emission 1 was detected at 650-610 nm and emission 2 detected at 620-610 nm. The HTRF ratio was calculated using the formula: [emission 1/emission 2]*10000.
Background signals were calculated from well with a 10 μM inhibitor, known to inhibit 100% at that concentration. The background subtracted signals were converted to % binding relative to DMSO controls. Data were analyzed using XLFIT software (IDBS) using a Morrison equation for competitive binding and Ki's were generated compound of Formula (I).

recombinant human SOS1 polypeptide (amino acids 560-1049), sequence (Q07889 560-1049): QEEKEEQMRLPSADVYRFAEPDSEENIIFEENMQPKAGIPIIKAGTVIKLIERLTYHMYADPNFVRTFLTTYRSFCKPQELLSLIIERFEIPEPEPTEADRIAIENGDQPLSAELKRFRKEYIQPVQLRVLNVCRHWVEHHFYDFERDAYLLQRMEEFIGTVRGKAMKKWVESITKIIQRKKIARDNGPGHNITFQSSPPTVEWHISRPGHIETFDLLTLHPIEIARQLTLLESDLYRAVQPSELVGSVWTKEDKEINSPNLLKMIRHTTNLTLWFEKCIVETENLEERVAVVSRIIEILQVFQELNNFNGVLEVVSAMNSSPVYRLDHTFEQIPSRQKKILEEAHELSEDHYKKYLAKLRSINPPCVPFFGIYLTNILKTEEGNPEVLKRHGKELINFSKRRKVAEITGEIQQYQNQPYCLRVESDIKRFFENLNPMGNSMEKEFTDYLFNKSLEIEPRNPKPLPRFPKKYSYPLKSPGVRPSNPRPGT

Point of comparison: `Cc1c(C#N)cccc1[C@@H](C)Nc1nnc(C)c2cnc(N3CC4(CCCN4C)C3)cc12` [Example 12-88], Ki 2.03 nM. Against it:
- Cc1nnc(N[C@H](C)c2cccc(C(F)F)c2F)c2cc(N3C[C@H]4C[C@@H]3CO4)ncc12 [Example 12-99] — 2.2-fold lower, 0.93 nM
- CNCc1cccc([C@@H](C)Nc2nnc(C)c3cc(OC)c(OC)cc23)c1C [Example 5-3, (R)-6,7-dimethoxy-4-methyl-N-(1-(2-methyl-3-((methylamino)methyl)phenyl)ethyl)phthalazin-1-amine] — 190-fold higher, 390 nM
- Cc1nnc(N[C@H](C)c2cccc(C(F)(F)F)c2F)c2cc(N3CCN(C)CC3)ncc12 [Example 12-67] — 5.6-fold lower, 0.36 nM
- Cc1nnc(N[C@H](C)c2cc(F)cc(C#N)c2F)c2cc(N3CCC(C)(N(C)C)CC3)ncc12 [Example 12-123] — 25-fold higher, 50.4 nM
- Cc1nnc(N[C@H](C)c2cccc(C(F)F)c2F)c2cc(N3CCN4CCOC[C@@H]4C3)ncc12 [Example 12-100] — 1.9-fold lower, 1.07 nM
- CNCc1nnc(N[C@H](C)c2cccc(C#N)c2C)c2cc(N3C[C@H]4C[C@@H]3CO4)ncc12 [Example 14-3, 3-((R)-1-((7-((1R,4R)-2-oxa-5-azabicyclo[2.2.1]heptan-5-yl)-4-((methylamino)methyl)pyrido[3,4-d]pyridazin-1-yl)amino)ethyl)-2-methylbenzonitrile] — 7.1-fold higher, 14.5 nM
- Cc1c(C#N)cccc1[C@@H](C)Nc1nnc(C)c2cnc(N3C[C@H]4CC[C@@H]3CN4CCO)cc12 [Example 12-89] — 8.1-fold lower, 0.25 nM
- Cc1cccc([C@@H](C)Nc2nnc(C)c3cnc(N4CC5CC(C4)O5)cc23)c1F [Example 12-134] — 3.5-fold higher, 7.1 nM
- Cc1nnc(N[C@H](C)c2cc(F)cc(C#N)c2F)c2cc(N3CC4CC(C3)O4)ncc12 [Example 12-121] — 19-fold higher, 39.2 nM
- Cc1c([C@@H](C)Nc2nnc(C)c3cnc(N4CC5CC(C4)O5)cc23)cc(F)cc1C(F)(F)F [Example 12-113] — within 1.5-fold, 2.62 nM
- Cc1c(C#N)cccc1[C@@H](C)Nc1nnc(C)c2cc(F)c(N3CCN(C)CC3)cc12 [Example 18-3, (R)-3-(1-((6-fluoro-4-methyl-7-(4-methylpiperazin-1-yl)phthalazin-1-yl)amino)ethyl)-2-methylbenzonitrile] — within 1.5-fold, 1.37 nM
- Cc1nnc(N[C@H](C)c2cccc(F)c2Cl)c2cc(N3CC4CC(C3)O4)ncc12 [Example 12-77] — 14-fold higher, 28.5 nM
- Cc1c([C@@H](C)Nc2nnc(C)c3cnc(N4C[C@H]5C[C@@H]4CO5)cc23)cc(F)cc1C(F)(F)F [Example 12-109] — within 1.5-fold, 2.61 nM
- Cc1c(C#N)cccc1[C@@H](C)Nc1nnc(C)c2ccc(N3CCN4CCC[C@@H]4C3)cc12 [Example 10-81, 3-((R)-1-((7-((R)-hexahydropyrrolo[1,2-a]pyrazin-2(1H)-yl)-4-methylphthalazin-1-yl)amino)ethyl)-2-methylbenzonitrile] — 2.3-fold lower, 0.9 nM
- Cc1c([C@@H](C)Nc2nnc(C)c3cnc(N4CC(C)(N(C)C)C4)cc23)cc(F)cc1C(F)(F)F [Example 12-110] — 1.7-fold higher, 3.54 nM
- Cc1nnc(N[C@H](C)c2cccc(C#N)c2C(F)(F)F)c2cc(N3C[C@H]4C[C@@H]3CO4)ncc12 [Example 12-127] — 3-fold higher, 6.08 nM
- Cc1c(C#N)cccc1[C@@H](C)Nc1nnc(C)c2cnc(N3CC(C)(N4CCOCC4)C3)cc12 [Example 12-87] — 1.6-fold higher, 3.17 nM
- CCN1CCN(c2cc3c(N[C@H](C)c4cccc(C(F)F)c4F)nnc(C)c3cn2)CC1 [Example 12-102] — 8.1-fold lower, 0.25 nM
- Cc1c(C#N)cccc1[C@@H](C)Nc1nnc(C)c2cnc(N3CCN4CCCC[C@@H]4C3)cc12 [Example 12-86] — 2.1-fold lower, 0.98 nM
- Cc1c([C@@H](C)Nc2nnc(C)c3cnc(N4CC(C)(O)C4)cc23)cc(F)cc1C(F)(F)F [Example 12-111] — 4-fold higher, 8.09 nM
- Cc1c(C#N)cccc1[C@@H](C)Nc1nnc(C)c2cnc(N3CCN4CCC[C@@H]4C3)cc12 [Example 12-73] — within 1.5-fold, 1.67 nM
- Cc1nnc(N[C@H](C)c2cc(N)cc(C(F)(F)F)n2)c2cc(N3CCN(C)CC3)ncc12 [Example 16-12, (R)-N-(1-(4-amino-6-(trifluoromethyl)pyridin-2-yl)ethyl)-4-methyl-7-(4-methylpiperazin-1-yl)pyrido[3,4-d]pyridazin-1-amine] — 4.7-fold higher, 9.58 nM
- Cc1c(F)cccc1[C@@H](C)Nc1nnc(C)c2cnc(N3CC4CC(C3)O4)cc12 [Example 12-126] — 6.9-fold higher, 14 nM
- Cc1c([C@@H](C)Nc2nnc(C)c3cnc(N4CCN5CCOC[C@@H]5C4)cc23)cc(F)cc1C(F)(F)F [Example 12-112] — within 1.5-fold, 2.2 nM
- Cc1nnc(N[C@H](C)c2cc(F)cc(C#N)c2F)c2cc(N3CC(C)(N(C)C)C3)ncc12 [Example 12-122] — 84-fold higher, 170 nM
- Cc1nnc(N[C@H](C)c2cc(F)cc(C#N)c2F)c2cc(N3C[C@H]4C[C@@H]3CO4)ncc12 [Example 12-114] — 34-fold higher, 69.3 nM
- Cc1nnc(N[C@H](C)c2cc(F)cc(C#N)c2F)c2cc(N3CCN4CCOC[C@@H]4C3)ncc12 [Example 12-120] — 25-fold higher, 49.8 nM
- CNCc1cccc([C@@H](C)Nc2nnc(C)c3ccc(N4CCOCC4)cc23)c1C [Example 6-8, (R)-4-methyl-N-(1-(2-methyl-3-((methylamino)methyl)phenyl)ethyl)-7-morpholinophthalazin-1-amine] — 19-fold higher, 39.2 nM
- Cc1c(C#N)cccc1[C@@H](C)Nc1nnc(C)c2ccc(N3CC4(CCCN4C)C3)cc12 [Example 10-84, (R)-2-methyl-3-(1-((4-methyl-7-(5-methyl-2,5-diazaspiro[3.4]octan-2-yl)phthalazin-1-yl)amino)ethyl)benzonitrile] — within 1.5-fold, 2.01 nM
- Cc1c(C#N)cc(F)cc1[C@@H](C)Nc1nnc(C)c2cnc(N3CC(C)(N(C)C)C3)cc12 [Example 12-108] — 11-fold higher, 22.1 nM
- Cc1nnc(N[C@H](C)c2cccc(F)c2Cl)c2cc(N3CCN4CCOC[C@@H]4C3)ncc12 [Example 12-74] — 5.2-fold higher, 10.5 nM
- CCN1CCN(c2cc3c(N[C@H](C)c4cccc(C(F)(F)F)c4F)nnc(C)c3cn2)CC1 [Example 12-68] — 5.5-fold lower, 0.37 nM
- Cc1nnc(N[C@H](C)c2cc(N)cc(C(F)(F)F)n2)c2cc(N3CC(C)(N(C)C)C3)ncc12 [Example 16-11, (R)-N-(1-(4-amino-6-(trifluoromethyl)pyridin-2-yl)ethyl)-7-(3-(dimethylamino)-3-methylazetidin-1-yl)-4-methylpyrido[3,4-d]pyridazin-1-amine] — 53-fold higher, 108 nM
- Cc1c(C#N)cc(F)cc1[C@@H](C)Nc1nnc(C)c2cnc(N3CC(C)(O)C3)cc12 [Example 12-107] — 18-fold higher, 35.6 nM
- Cc1c(C#N)cccc1[C@@H](C)Nc1nnc(C)c2cnc(N3CC4(CCOC4)C3)cc12 [Example 12-71] — 2.2-fold higher, 4.48 nM
- Cc1nnc(N[C@H](C)c2cccc(F)c2F)c2cc(N3CC4CC(C3)O4)ncc12 [Example 12-98] — 9.4-fold higher, 19 nM
- Cc1nnc(N[C@H](C)c2cccc(C(F)(F)F)c2F)c2cc(N3CCN4CCOC[C@@H]4C3)ncc12 [Example 12-63] — 2.4-fold lower, 0.83 nM

Same assay, conditions: read-out: Ki, Inhibition of Labeled Tracer Binding to SOS1

Point of comparison: `Cc1c(C#N)cccc1[C@@H](C)Nc1nnc(C)c2ccc(N3CC4(CCOC4)C3)cc12` [Example 10-80, (R)-2-methyl-3-(1-((4-methyl-7-(6-oxa-2-azaspiro[3.4]octan-2-yl)phthalazin-1-yl)amino)ethyl)benzonitrile Hydrochloride salt], Ki 5.75 nM. Against it:
- Cc1c(C#N)cccc1[C@@H](C)Nc1nnc(C)c2ccc(N3CC(C)(N4CCOCC4)C3)cc12 [Example 10-83, (R)-2-methyl-3-(1-((4-methyl-7-(3-methyl-3-morpholinoazetidin-1-yl)phthalazin-1-yl)amino)ethyl)benzonitrile Formate salt] — within 1.5-fold, 4.54 nM
